Source: patent US20050009797A1, “Androstane derivative having substituent in 7- abd 17--positions” (priority 2001, published 2005)
Like-named read-outs stand apart in the source and are kept apart here.

Tests used:
[1] = Metabolic stability in rat liver microsome with β-NAD+ (Example 27); format: in vitro ADME; details: 37° C.
Experimental: A test tube containing 0.1 mol/L potassium phosphate buffer (345 μL, pH 7.4) was cooled on ice, followed by addition of 5 mg/mL rat liver microsome (50 μL), 0.1 mol/L magnesium chloride (50 μL) and a test compound dissolved in ethanol (adjusted to 1 mg/mL, 5 μL). After pre-incubation at 37° C. for 5 minutes, 10 mM β-Nicotinamide-adenine dinucleotide, oxidized form (β-NAD^+) was added to initiate the reaction. The reaction was continued at 37° C. for 0, 5 and 15 minutes, followed by addition of 0.1 mol/L hydrochloric acid (100 μL) and diethyl ether (5 mL) to stop the reaction. The reaction mixture was stirred for 10 minutes and then centrifuged at 3000 rpm for 10 minutes. The upper organic layer (4.5 mL) was transferred to another test tube, evaporated to dryness under a nitrogen stream, dissolved in 40% acetonitrile (200 μL) and then measured for the peak area of the test compound by high performance liquid chromatography. The residual percentage of the test compound at a given point in time was calculated using the following equation: Residual (%)=[(peak area of the test compound at a given time point)/(peak area of the test compound at 0 minutes)]×100

human androgen receptor [2] = target: T1, human androgen receptor (Homo sapiens, UniProt P10275); assay: Androgen receptor reporter gene assay, antagonistic effects (Example 26); format: cell-based
T1 construct: expressed in transfected cells; host or cells: HeLa cells
T1 sequence (P10275 1-920): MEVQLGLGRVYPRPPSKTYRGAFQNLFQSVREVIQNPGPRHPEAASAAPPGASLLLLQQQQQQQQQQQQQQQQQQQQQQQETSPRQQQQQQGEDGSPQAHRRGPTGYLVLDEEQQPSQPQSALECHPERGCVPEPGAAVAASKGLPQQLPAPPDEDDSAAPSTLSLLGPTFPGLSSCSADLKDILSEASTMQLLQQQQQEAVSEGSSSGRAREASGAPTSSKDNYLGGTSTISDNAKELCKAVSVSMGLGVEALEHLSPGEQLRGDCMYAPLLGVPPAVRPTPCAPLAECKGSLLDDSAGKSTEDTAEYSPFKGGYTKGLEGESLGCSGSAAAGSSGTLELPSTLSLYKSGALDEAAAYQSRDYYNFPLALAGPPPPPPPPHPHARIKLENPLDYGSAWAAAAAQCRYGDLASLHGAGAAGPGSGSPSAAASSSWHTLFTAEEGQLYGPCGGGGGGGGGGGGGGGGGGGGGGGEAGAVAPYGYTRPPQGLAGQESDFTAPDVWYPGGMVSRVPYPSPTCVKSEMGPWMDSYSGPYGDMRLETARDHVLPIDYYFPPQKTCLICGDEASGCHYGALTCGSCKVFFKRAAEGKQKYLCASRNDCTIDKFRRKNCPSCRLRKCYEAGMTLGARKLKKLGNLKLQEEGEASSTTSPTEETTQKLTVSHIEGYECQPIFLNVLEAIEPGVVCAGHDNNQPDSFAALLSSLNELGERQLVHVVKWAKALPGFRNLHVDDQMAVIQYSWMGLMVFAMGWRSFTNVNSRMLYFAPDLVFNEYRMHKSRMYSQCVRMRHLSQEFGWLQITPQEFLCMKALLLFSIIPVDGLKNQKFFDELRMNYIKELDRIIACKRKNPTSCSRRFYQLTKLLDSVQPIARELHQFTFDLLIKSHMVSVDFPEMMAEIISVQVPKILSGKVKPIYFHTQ
Experimental: (§1) Twenty-four hours before transfection, 1.0×10^5 HeLa cells are cultured in a 12-well microplate containing phenol red-free DMEM/5% DCC-FBS. The HeLa cells are then transfected with 500 ng/well MMTV-Luc vector, 100 ng/well pSG5-hAR and 5 ng/well Renilla Luc vector. Transfection is carried out in phenol red-free DMEM medium using 3 μL/well lipofectamine. Nine hours after transfection, the medium is replaced by phenol red-free DMEM/3% DCC-FBS supplemented with 0.1 nmol/L DHT and 1.0 μmol/L of the compound of Formula (I) or a salt or ester thereof according to the present invention. Forty-eight hours after replacement of the medium, the transcriptional activity is determined by a Dual-Luciferase Reporter Assay System according to the following equation: (transcriptional activity)=(firefly luciferase activity)/(Renilla luciferase activity). To effect this assay, reference may be made to J. Biol. Chem., vol. 270, p.
(§2) Twenty-four hours before transfection, 1.0×10^5 HeLa cells were cultured in a 12-well microplate containing phenol red-free DMEM/5% DCC-FBS. The HeLa cells were then transfected with 500 ng/well MMTV-Luc vector, 100 ng/well pSG5-hAR and 5 ng/well Renilla Luc vector. Transfection was carried out in phenol red-free DMEM medium using […] lipofectamine. […] Forty-eight hours after replacement of the medium, the transcriptional activity was determined by a Dual-Luciferase Reporter Assay System according to the following equation: (transcriptional activity)=(firefly luciferase activity)/(Renilla luciferase activity).

human androgen receptor [3] = target: T1, human androgen receptor; assay: Androgen receptor reporter gene assay, agonistic effects (Example 25); format: cell-based; details: HeLa cells transfected with MMTV-Luc and pSG5-hAR; 1-10000 nmol/L; 48 h; no DHT
Experimental: as §1, with “cells (purchased from Dainippon Pharmaceutical Co., Ltd.)” for “cells”, “Dulbecco's Modified Eagle Medium (phenol red-free DMEM) supplemented” for “DMEM/5% DCC-FBS. The HeLa cells are then transfected”, “charcoal-treated FBS (DCC-FBS; 5%). […]” for “500 ng/well MMTV-Luc vector, 100 ng/well pSG5-hAR and 5 ng/well Renilla Luc vector.”, “lipofectamine (Gibco BRL).” for “lipofectamine.”, “10” for “0.1 nmol/L DHT and 1.0”, “System (promega)” for “System”
as §2
The transcriptional activity thus determined was used to calculate agonist activity according to the following equation, which in turn was used to calculate a FI5 value (i.e., a concentration at which the compound provides a 5-fold increase in transcriptional activity as compared to the value obtained in the absence of the compound). Agonist activity=(transcriptional activity in the presence of the compound)/(transcriptional activity in the absence of the compound)

androgen receptor = androgen receptor (Homo sapiens, UniProt P10275); details: concentration of 10 μM; cited from earlier work
[4] = prostate cancer patients undergoing treatment with flutamide; cited from earlier work
castrated rats = castrated rats continuously administered for two weeks; cited from earlier work
[5] = 50% inhibition of transcriptional activity induced by DHT (0.1 nmol/L), HeLa cells transfected with MMTV-Luc and pSG5-hAR, 48 h, read-out: IC50 value

SMILES | IC50 (human androgen receptor [2]; [5]) [nM] | FI5 value (concentration giving 5-fold increase in transcriptional activity) (human androgen receptor [3]) | further results
CN(C)C(=O)CCCCCCC[C@@H]1C[C@H]2CC(=O)CC[C@]2(C)[C@H]2CC[C@]3(C)[C@@H](O)CC[C@H]3[C@H]12 [Comparative Example, 17β-hydroxy-7α-{7-(N,N-dimethylaminocarbonyl)heptyl}-5α-androstan-3-one, reference compound] | – | – | Residual (%) 5 minutes [1]: 59.4%; Residual (%) 15 minutes [1]: 15.1%
C[C@]12CCC(=O)C=C1C[C@@H](CCCCc1cccc(OCCCCC(=O)O)c1)[C@@H]1[C@@H]2CC[C@@]2(C)[C@H]1CC[C@]2(C)O [Example 1, 17β-hydroxy-17α-methyl-7α-(4-(3-(4-carboxy-butoxy)phenyl)butyl)-4-androsten-3-one] | 333 | ND* (a FI5 value cannot be calculated because the compound provides less than a 5-fold increase in transcriptional activity even at a concentration of 10000 nM) | –
CC12CCC(=O)C=C1CC(CCCCCc1ccc(OCC(=O)O)cc1)C1C2CCC2(C)C1CCC2(C)O (stereo not shown) [Example 7] | 5140 | ND (a FI5 value cannot be calculated because the compound provides less than a 5-fold increase in transcriptional activity even at a concentration of 10000 nM) | –
CC12CCC(=O)C=C1CC(CCCCc1cccc(OCCCCCC(=O)O)c1)C1C2CCC2(C)C1CCC2(C)O (stereo not shown) [Example 13] | 529 | ND (a FI5 value cannot be calculated because the compound provides less than a 5-fold increase in transcriptional activity even at a concentration of 10000 nM) | –
C[C@]12CCC(=O)C=C1C[C@@H](CCCc1ccc(OCCCC(=O)O)cc1)[C@@H]1[C@@H]2CC[C@@]2(C)[C@H]1CC[C@]2(C)O [Example 18, 17β-hydroxy-17α-methyl-7α-(3-(4-(3-carboxy-propoxy)phenyl)propyl)-4-androsten-3-one] | – | ND (a FI5 value cannot be calculated because the compound provides less than a 5-fold increase in transcriptional activity even at a concentration of 10000 nM) | IC50 (human androgen receptor [2]): 664 nM; Residual (%) 5 minutes [1]: 113.7%; Residual (%) 15 minutes [1]: 110.8%
CC12CCC(=O)C=C1CC(CCCc1cccc(OCCCC(=O)O)c1)C1C2CCC2(C)C1CCC2(C)O (stereo not shown) [Example 20] | 815 | ND (a FI5 value cannot be calculated because the compound provides less than a 5-fold increase in transcriptional activity even at a concentration of 10000 nM) | –
CC12CCC(=O)C=C1CC(CCCc1ccc(CCCCC(=O)O)cc1)C1C2CCC2(C)C1CCC2(C)O (stereo not shown) [Example 22] | – | ND (a FI5 value cannot be calculated because the compound provides less than a 5-fold increase in transcriptional activity even at a concentration of 10000 nM) | IC50 (human androgen receptor [2]): 717 nM
CC12CCC(=O)C=C1CC(CCCc1cccc(CCCCC(=O)O)c1)C1C2CCC2(C)C1CCC2(C)O (stereo not shown) [Example 24] | 4040 | ND (a FI5 value cannot be calculated because the compound provides less than a 5-fold increase in transcriptional activity even at a concentration of 10000 nM) | –
CC(C)(O)C(=O)Nc1ccc([N+](=O)[O-])c(C(F)(F)F)c1 [Hydroxyflutamide] | – | – | effect on transcriptional activity of androgen receptor (androgen receptor): enhance the transcriptional activity of androgen receptor; blood hydroxyflutamide levels [4]: several
CC(=O)O[C@]1(C(C)=O)CC[C@H]2[C@@H]3C=C(Cl)C4=CC(=O)CC[C@]4(C)[C@H]3CC[C@@]21C [chlormadinone acetate] | – | – | prostate weight (castrated rats): increase in their prostate weight
CC(=O)O[C@]1(C(C)=O)CC[C@H]2[C@@H]3C=C(Cl)C4=CC(=O)[C@@H]5C[C@@H]5[C@]4(C)[C@H]3CC[C@@]21C [cyproterone acetate] | – | – | prostate weight (castrated rats): increase in their prostate weight
